One test addresses YES1 kinase (Homo sapiens, UniProt P07947). Nature of the test: YES1 kinase inhibition, ADP Glo assay (Promega). It is filed as biochemical. Conditions: for IC50: class symbols, read-out: YES1 enzyme, IC50; for inhibition at 0.01 µM: compound 10 nM, read-out: YES1 enzyme, % inhibition, 10 nM; for inhibition at 0.1 µM: compound 100 nM, read-out: YES1 enzyme, % inhibition, 100 nM. The method, then:
To evaluate the inhibitory activity against YES1 kinase of the compound according to the present invention, ADP Glo assay (Promega) was used, and the following method was performed with reference to the Promega kinase enzyme system protocol. To proceed with the experiment, buffers A-F and compound dilution plates were required.
To prepare A.4X reaction buffer, 800 μl of 5X reaction buffer and 200 μl of distilled water were used. To prepare B.4X kinase buffer, 996.6 μl of A.4X reaction buffer, 2 μl of 0.1M DTT, and 3.2 μl of 2.5M MnCl2 were added and mixed. To prepare C.1X kinase buffer (containing 5% DMSO) used for compound dilution, 250 μl of B.4X kinase buffer, 700 μl of distilled water, and 50 μl of DMSO were added, so that the final DMSO concentration became 5%. Then, 10 mM compounds were diluted 100-fold to prepare 100 μM solutions, and then D.5X inhibitor solution was prepared so that the compound concentration became 5 uM. Using a 96-well plate, 5 μM compounds were 3-fold diluted using C.1X kinase buffer (containing 5% DMSO) to prepare compound plates with concentrations ranging from 0.25 μM to 5 μM. The resulting plates were stored at room temperature. To prepare E. 2.5X ATP/substrate mixture, 50 μl of B.4X kinase buffer, 50 μl of […], and 100 μl of substrate were mixed. To prepare F YES1 kinase enzyme solution, 35 μl of B.4X kinase buffer, 0.4 μl of YES1 enzyme, and 104.6 μl of distilled water were used. Once the diluted compound plates, ATP/substrate mixture, and YES1 kinase solution were all prepared, 3 μL each was transferred from the diluted compound plate to a luciferase 96-well white plate (Since the total volume of the ATP/substrate and YES1 kinase solution that reacts with the compound is 15 μL, the compounds were diluted 5-fold, making the final compound concentration 0.05 μM-1 μM). Then, 6 μL of F. YES1 Kinase Enzyme Solution was transferred to each well, pipetted 10 times to mix, and incubated at room temperature in a shaker for 10 minutes. Next, 6 μL of E. 2.5X ATP/Substrate Mixture was transferred to each well, pipetted 10 times to mix, and centrifuged at 12,000 rpm for 5 minutes. The plate was then incubated in a shaker at room temperature for 40 minutes. After that, 15 μL of ADP-Glo Reagent, dissolved at room temperature, was added to each well, pipetted 10 times, and incubated in a shaker at room temperature for 40 minutes. Finally, 30 μL of Kinase Detection Reagent, dissolved at room temperature, was added, pipetted 10 times, incubated in a shaker at room temperature for 30 minutes. Luminescence was measured using a luminescence plate reader. Then, the background value was subtracted from all measured values, and the YES1 kinase activity at compound concentrations of 1 nM, 10 nM, and 100 nM was calculated. The measured values were calculated as percentages using the average value of the negative control. Graphs were drawn using GraphPad Prism, and the enzyme activity was calculated as a percentage of YES1 kinase inhibition at compound concentrations of 1 nM, 10 nM, and 100 nM. IC50 values were obtained using Microsoft Excel.

Test [1] concerns KYSE-70 esophageal cancer cell line. In words: Cell growth inhibition of KYSE-70 (Sulforhodamine B). Type of test: cell-based. Conditions: Homo sapiens; KYSE-70, 72 hours; read-out: KYSE70 GI50. As to the method: The cell line according to the present invention was selected as KYSE-70, an esophageal cancer cell line in which YES1 is amplified. The evaluation of cell growth inhibition was performed as follows.
KYSE-70 was cultured in RPMI-1640 (Capricorn) supplemented with 10% FBS (Cellgro). The cells were seeded 24 hours prior to compound treatment, into three 96-well F-bottom clear plates (Greiner), with 7,500 cells per well in 180 μL of medium. The 10 mM compound was diluted 100-fold in medium to prepare a 100 μM compound, which was then placed into a 96-well plate and further 3-fold diluted in medium to prepare a compound plate with concentrations ranging from 0.046 μM to 100 μM. 20 μL of each compound from the drug plate was added to the cell-seeded plates to achieve final concentrations of 0.0046 μM to 10 μM. At the same time, 50 μL of 33% trichloroacetic acid was injected into one plate and the plate was fixed by incubating at 4° C. This was referred to as the Do plate. Viable cells were measured 72 hours after compound treatment by injecting 50 μL of 33% trichloroacetic acid and incubating at 4° C. for more than 1 hour to fix the cells. This was referred to as the D3 plate. After the Do plate and D3 plates were washed 5 times with sterile water, 100 μL of 0.04% Sulforhodamine B solution in 1% acetic acid was added and reacted for 1 hour to stain the cells. After staining, the plates were washed 4 times with 1% acetic acid solution and completely dried. Then, the Sulforhodamine B bound to cellular proteins was completely dissolved with 10 mM Tris base solution (pH 10.5). The absorbance was measured at a wavelength of 510 nm using a microplate reader (TECAN, sunrise microplate reader). The analysis was performed using GraphPad Prism. The average absorbance of the Do plate was set to 0%, and the average absorbance of the negative control of the D3 plate was set to 100%, from which a graph was drawn and the GI50 values were calculated. Each test was performed twice.

Each structure is given as a SMILES string.

Chain of YES1 kinase (P07947 whole entry): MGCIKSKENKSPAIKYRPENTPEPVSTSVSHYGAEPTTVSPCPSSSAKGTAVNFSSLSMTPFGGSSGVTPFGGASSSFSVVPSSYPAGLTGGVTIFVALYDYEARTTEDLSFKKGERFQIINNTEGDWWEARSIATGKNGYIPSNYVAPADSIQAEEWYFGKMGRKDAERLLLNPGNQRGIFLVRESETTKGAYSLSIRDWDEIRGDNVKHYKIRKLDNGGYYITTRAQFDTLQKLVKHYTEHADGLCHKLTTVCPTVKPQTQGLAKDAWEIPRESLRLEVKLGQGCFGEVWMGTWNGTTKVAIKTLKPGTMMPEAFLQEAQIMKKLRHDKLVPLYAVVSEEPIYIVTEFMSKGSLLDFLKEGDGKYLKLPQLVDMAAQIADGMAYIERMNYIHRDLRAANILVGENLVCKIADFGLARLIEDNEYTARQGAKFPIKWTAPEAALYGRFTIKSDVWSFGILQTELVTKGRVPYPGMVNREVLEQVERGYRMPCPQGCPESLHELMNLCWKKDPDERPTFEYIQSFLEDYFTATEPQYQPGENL

Regarding `COc1cc(-c2cc(N3CC[C@H](N)[C@@H](C(F)(F)F)C3)n3ncnc(N)c23)ccc1NC(=O)OC(C)(C)C` [Example 85, tert-butyl (4-(4-amino-7-((3S,4S)-4-amino-3-(trifluoromethyl)piperidin-1-yl)pyrrolo[2,1-f][1,2,4]triazin-5-yl)-2-methoxyphenyl)carbamate], at YES1 kinase, the half-maximal inhibitory concentration (IC50) was at most 100 nM, the inhibition at 0.01 µM was found to be 59% and the inhibition at 0.1 µM was determined as 78%. Further, the concentration for 50% growth inhibition (GI50) in test [1] is at most 100 nM.

As to `COc1cc(-c2cc(CCN3CCC(N(C)C)CC3)n3ncnc(N)c23)ccc1NC(=O)OC(C)(C)C` [Example 98, tert-butyl (4-(4-amino-7-(2-(4-(dimethylamino)piperidin-1-yl)ethyl)pyrrolo[2,1-f][1,2,4]triazin-5-yl)-2-methoxyphenyl)carbamate], at YES1 kinase, the inhibition at 0.01 µM came out at 65% and the inhibition at 0.1 µM was 90%. Moreover, the GI50 in test [1] is at most 100 nM.

With `COc1cc(-c2cc(N3CC(C)C(N)C(C)C3)n3ncnc(N)c23)ccc1NC(=O)OC(C)(C)C` (centres unmarked) [Example 91, tert-butyl (4-(4-amino-7-(4-amino-3,5-dimethylpiperidin-1-yl)pyrrolo[2,1-f][1,2,4]triazin-5-yl)-2-methoxyphenyl)carbamate], at YES1 kinase, the inhibition at 0.01 µM was found to be 21% and the inhibition at 0.1 µM is 59%. For the same compound, the 50% growth inhibitory concentration (GI50) in test [1] fell in the range of 100 to 1000 nM.

Turning to `COc1cc(-c2cc(N3CCC(CN)CC3)n3ncnc(N)c23)ccc1NC(=O)OC(C)(C)C` [Example 59, tert-butyl (4-(4-amino-7-(4-(aminomethyl)piperidin-1-yl)pyrrolo[2,1-f][1,2,4]triazin-5-yl)-2-methoxyphenyl)carbamate], on YES1 kinase, the IC50 is at most 100 nM, the inhibition at 0.01 µM stood at 56% and the inhibition at 0.1 µM amounted to 80%. For the same compound, the GI50 in test [1] was 100 to 1000 nM.

As to `COc1cc(-c2cc(N3CCC4(CCN(C)CC4)C3)n3ncnc(N)c23)ccc1NC(=O)OC(C)(C)C` [Example 36, tert-butyl (4-(4-amino-7-(8-methyl-2,8-diazaspiro[4.5]decan-2-yl)pyrrolo[2,1-f][1,2,4]triazin-5-yl)-2-methoxyphenyl)carbamate], on YES1 kinase, the inhibition at 0.01 µM came to 36% and the inhibition at 0.1 µM is 78%. Also, in test [1], the 50% growth inhibitory concentration (GI50) is 100 to 1000 nM.

As for `COc1cc(-c2cc(N3CCC4(CN(C)C4)C3)n3ncnc(N)c23)ccc1NC(=O)OC(C)(C)C` [Example 37, tert-butyl (4-(4-amino-7-(2-methyl-2,6-diazaspiro[3.4]octan-6-yl)pyrrolo[2,1-f][1,2,4]triazin-5-yl)-2-methoxyphenyl)carbamate], at YES1 kinase, the inhibition at 0.01 µM was found to be 24% and the inhibition at 0.1 µM was determined as 69%. Also, the GI50 in test [1] is 100 to 1000 nM.

As to `CNC1CCN(c2cc(-c3ccc(NC(=O)OC(C)(C)C)c(OC)c3)c3c(N)ncnn23)CC1` [Example 44, tert-butyl (4-(4-amino-7-(4-(methylamino)piperidin-1-yl)pyrrolo[2,1-f][1,2,4]triazin-5-yl)-2-methoxyphenyl)carbamate], on YES1 kinase, the half-inhibitory concentration (IC50) is at most 100 nM, the inhibition at 0.01 µM was determined as 80% and the inhibition at 0.1 µM was 96%. In addition, in test [1], the concentration for 50% growth inhibition (GI50) was at most 100 nM.

As to `COc1cc(-c2cc(N3CCC(CN(C)C)CC3)n3ncnc(N)c23)ccc1NC(=O)OC(C)(C)C` [Example 19, tert-butyl (4-(4-amino-7-(4-((dimethylamino)methyl)piperidin-1-yl)pyrrolo[2,1-f][1,2,4]triazin-5-yl)-2-methoxyphenyl)carbamate], at YES1 kinase, the inhibition at 0.01 µM was 69% and the inhibition at 0.1 µM came to 86%. Besides, the 50% growth inhibitory concentration (GI50) in test [1] was at most 100 nM.

`COc1cc(-c2cc(-c3ccc(N(C)C)cc3)n3ncnc(N)c23)ccc1NC(=O)OC(C)(C)C` [Example 1, tert-butyl (4-(4-amino-7-(4-(dimethylamino)phenyl)pyrrolo[2,1-f][1,2,4]triazin-5-yl)-2-methoxyphenyl)carbamate]: at YES1 kinase, the inhibition at 0.01 µM is 17% and the inhibition at 0.1 µM came to 31%. In test [1], the GI50 was in the range of 1000 to 10000 nM.

`COc1cc(-c2cc(N3CCC(N)CC3)n3ncnc(N)c23)ccc1NC(=O)OC(C)(C)C` [Example 12, tert-butyl (4-(4-amino-7-(4-aminopiperidin-1-yl)pyrrolo[2,1-f][1,2,4]triazin-5-yl)-2-methoxyphenyl)carbamate]: at YES1 kinase, the inhibition at 0.01 µM was 65% and the inhibition at 0.1 µM is 86%. In test [1], the GI50 was 100 to 1000 nM.

Consider `COc1cc(-c2cc(N3CCC(C)(CN)CC3)n3ncnc(N)c23)ccc1NC(=O)OC(C)(C)C` [Example 123, tert-butyl (4-(4-amino-7-(4-(aminomethyl)-4-methylpiperidin-1-yl)pyrrolo[2,1-f][1,2,4]triazin-5-yl)-2-methoxyphenyl)carbamate], for which, on YES1 kinase, the IC50 is at most 100 nM. The 50% growth inhibitory concentration (GI50) in test [1] is at most 100 nM.

Regarding `COc1cc(-c2cc(N3CCC4(CCN(C)C4)CC3)n3ncnc(N)c23)ccc1NC(=O)OC(C)(C)C` [Example 22, tert-butyl (4-(4-amino-7-(2-methyl-2,8-diazaspiro[4.5]decan-8-yl)pyrrolo[2,1-f][1,2,4]triazin-5-yl)-2-methoxyphenyl)carbamate], at YES1 kinase, the inhibition at 0.01 µM was found to be 60% and the inhibition at 0.1 µM turned out to be 87%. Also, the GI50 in test [1] fell in the range of 100 to 1000 nM.

As to `COc1cc(-c2cc(-c3ccc4c(c3)OCCN4C)n3ncnc(N)c23)ccc1NC(=O)OC(C)(C)C` [Example 7, tert-butyl (4-(4-amino-7-(4-methyl-3,4-dihydro-2H-benzo[b][1,4]oxazin-7-yl)pyrrolo[2,1-f][1,2,4]triazin-5-yl)-2-methoxyphenyl)carbamate], on YES1 kinase, the inhibition at 0.01 µM amounted to 28% and the inhibition at 0.1 µM was determined as 49%. Also, the GI50 in test [1] was 1000 to 10000 nM.

Consider `COc1cc(-c2cc(N3CCC(N)C(C)C3)n3ncnc(N)c23)ccc1NC(=O)OC(C)(C)C` (centres unmarked) [Example 48, tert-butyl (4-(4-amino-7-(4-amino-3-methylpiperidin-1-yl)pyrrolo[2,1-f][1,2,4]triazin-5-yl)-2-methoxyphenyl)carbamate], for which, on YES1 kinase, the inhibition at 0.01 µM worked out at 70% and the inhibition at 0.1 µM worked out at 96%. For the same compound, the GI50 in test [1] was at most 100 nM.

On to `COc1cc(-c2cc(-c3ccc(N(C)C)c(F)c3)n3ncnc(N)c23)ccc1NC(=O)OC(C)(C)C` [Example 4, tert-butyl (4-(4-amino-7-(4-(dimethylamino)-3-fluorophenyl)pyrrolo[2,1-f][1,2,4]triazin-5-yl)-2-methoxyphenyl)carbamate], for which, at YES1 kinase, the inhibition at 0.01 µM came to 31% and the inhibition at 0.1 µM came out at 29%. Further, the concentration for 50% growth inhibition (GI50) in test [1] was 1000 to 10000 nM.

The values above are taken from patent US20260297095A1, “NOVEL PYRROLOTRIAZINE DERIVATIVE AND USE THEREOF” (Pelemed Co., Ltd., priority 2024, published 2026).
